≈ marks a conversion by molar mass, not a printed value.
Experiments:
[1] = Neutral lipophilic character; type: physicochemical
Proteus mirabilis = assay: Antibacterial activity, paper disk method; type: cell-based; details: paper disk 8 mm, 0.02 ml of 300 μg/ml solution, Trypticase-soy-agar
Method: (§1) Using Trypticase-soy-agar (Baltimore Biologicals, U.S.A.) as the assay medium, the growth inhibitory concentrations of the compound against the various microorganisms named hereinbelow were determined by the paperdisk method. Thus, on plate media containing the following microorganisms, respectively, minimal inhibitory concentrations were determined using paper disks imbibed with 0.02 ml of a 300 μg/ml solution of PHM-3 or PHM-4 (disks, Toyo Seisakusho, Japan, thin-type, diam. 8 mm).
(§2) Escherichia coli, Proteus vulgaris, Proteus mirabilis, Pseudomonas aeruginosa, Staphylococcus aureus, Bacillus subtilis, Bacillus cereus, Klebsiella pneumoniae, Serratia marcessence, Mycobacterium avium.
(§3) Using Trypticase-soy-agar (Baltimore Biologicals, U.S.A.) as the test medium, the growth inhibitory activity of the compound against the organisms named below was assayed by the paper disk method. Thus, on the plate media each containing one of the undermentioned organisms, the activity of the compound was tested using paper disks (Toyo Seisakusho, Japan, thin type, diam. 8 mm) imbibed with 0.02 ml of a 300 μg/ml solution of PHM-3-acetate.
(§4) Escherichia coli, Proteus vulgaris, Proteus mirabilis, Pseudomonas aeruginosa, Staphylococcus aureus, Bacillus subtilis, Bacillus cereus, Klebsiella pneumoniae, Serratia marcescence, Mycobacterium avium.

Bacillus subtilis = assay: Antibacterial activity, paper disk method; type: cell-based; details: paper disk 8 mm, 0.02 ml of 300 μg/ml solution, Trypticase-soy-agar
Method: as §1, §2, §3, §4

Serratia marcessence = assay: Antibacterial activity, paper disk method; type: cell-based; details: paper disk 8 mm, 0.02 ml of 300 μg/ml solution, Trypticase-soy-agar
Method: as §1, §2, §3, §4

Bacillus cereus = assay: Antibacterial activity, paper disk method; type: cell-based; details: paper disk 8 mm, 0.02 ml of 300 μg/ml solution, Trypticase-soy-agar
Method: as §1, §2, §3, §4

Proteus vulgaris = assay: Antibacterial activity, paper disk method; type: cell-based; details: paper disk 8 mm, 0.02 ml of 300 μg/ml solution, Trypticase-soy-agar
Method: as §1, §2, §3, §4

Pseudomonas aeruginosa = assay: Antibacterial activity, paper disk method; type: cell-based; details: paper disk 8 mm, 0.02 ml of 300 μg/ml solution, Trypticase-soy-agar
Method: as §1, §2, §3, §4

Klebsiella pneumoniae = assay: Antibacterial activity, paper disk method; type: cell-based; details: paper disk 8 mm, 0.02 ml of 300 μg/ml solution, Trypticase-soy-agar
Method: as §1, §2, §3, §4

Staphylococcus aureus = assay: Antibacterial activity, paper disk method; type: cell-based; details: paper disk 8 mm, 0.02 ml of 300 μg/ml solution, Trypticase-soy-agar
Method: as §1, §2, §3, §4

Mycobacterium avium = assay: Antibacterial activity, paper disk method; type: cell-based; details: paper disk 8 mm, 0.02 ml of 300 μg/ml solution, Trypticase-soy-agar
Method: as §1, §2, §3, §4

Escherichia coli = assay: Antibacterial activity, paper disk method; type: cell-based; details: paper disk 8 mm, 0.02 ml of 300 μg/ml solution, Trypticase-soy-agar
Method: as §1, §2, §3, §4

Tetrahymena pyriformis W = assay: Antiprotozoan growth inhibition, serial broth dilution method; type: cell-based; details: 44 h, 28° C., 44 to 48 hours, pH 7.0, serial broth dilution, read-out: growth inhibitory concentration
Method: In addition, using Tetrahymena pyriformis W strain as the test organism and the assay medium composed of 20 g proteose peptone (Difco, U.S.A.), 1 g yeast extract, 2 g glucose, 1000 ml distilled water and 10 ml 1 M phosphate buffer, pH 7.0, cultivation was carried out at 28° C. for 44 to 48 hours and the growth inhibitory concentration of the antibiotic was determined by the serial broth dilution method.
Tetrahymena pyriformis W, as the test organism, was cultivated on an assay medium [20 g of proteose-peptone (Difco, U.S.A.), 1 g of yeast extract, 2 g of glucose, 1000 ml of distilled water, 10 ml of 1 M phosphate buffer, pH 7.0] at 28° C. for 44 to 48 hours and the growth inhibitory activity of the compound against the above-mentioned strain was assayed by the serial dilution method.

Nocardia sp. No. N-1231 = assay: Antibiotic resistance of No. N-1231 strain; type: cell-based

Question: With `COc1cc2cc(c1Cl)N(C)C(=O)CC(O)C1(C)OC1C(C)C1CC(O)(NC(=O)O1)C(OC)/C=C/C=C(\C)C2` (stereo not drawn) [P-0, maytansinol] as the compound, how does the “neutral lipophilic / fat-soluble character” value [1] read?
Answer: The value was “neutral lipophilic”.

Question: Which “neutral lipophilic / fat-soluble character” value [1] does the source give for `CCC(=O)OC1CC(=O)N(C)c2cc(cc(OC)c2Cl)CC(C)=CC=CC(OC)C2(O)CC(OC(=O)N2)C(C)C2OC12C` (stereo not drawn) [P-2, maytansinol propionate] here?
Answer: Its value is “neutral lipophilic”.

Question: Which results are given for `COc1cc2cc(c1Cl)N(C)C(=O)CC(OC(=O)CC(C)C)C1(C)OC1C(C)C1CC(O)(NC(=O)O1)C(OC)C=CC=C(CO)C2` (stereo not drawn) [PHM-4]?
Answer: activity (growth inhibition) (Proteus mirabilis): no activity; activity (growth inhibition) (Bacillus subtilis): no activity; activity (growth inhibition) (Serratia marcessence): no activity; activity (growth inhibition) (Bacillus cereus): no activity; activity (growth inhibition) (Proteus vulgaris): no activity; activity (growth inhibition) (Pseudomonas aeruginosa): no activity; activity (growth inhibition) (Klebsiella pneumoniae): no activity; activity (growth inhibition) (Staphylococcus aureus): no activity; activity (growth inhibition) (Mycobacterium avium): no activity; activity (growth inhibition) (Escherichia coli): no activity; MIC (Tetrahymena pyriformis W): 40 µg/mL (≈ 60.1 µM)

Question: For `CC1(C)S[C@@H]2[C@H](NC(=O)Cc3ccccc3)C(=O)N2[C@H]1C(=O)O` [penicillin G], which “resistance of No. N-1231 strain” value (Nocardia sp. No. N-1231) is on record?
Answer: The value was “resistant”.

Question: Which “neutral lipophilic / fat-soluble character” value [1] does the source give for `COc1cc2cc(c1Cl)N(C)C(=O)CC(OC(C)=O)C1(C)OC1C(C)C1CC(O)(NC(=O)O1)C(OC)C=CC=C(C)C2` (stereo not drawn) [P-1, maytanacine] here?
Answer: The value was “neutral lipophilic”.

Question: For `[H]/N=C(/N)N[C@H]1[C@H](O)[C@@H](O)[C@H](O[C@@H]2O[C@@H](C)[C@](O)(C=O)[C@H]2O[C@@H]2O[C@@H](CO)[C@H](O)[C@@H](O)[C@@H]2NC)[C@@H](N/C(N)=N\[H])[C@@H]1O` [streptomycin], which “resistance of No. N-1231 strain” value (Nocardia sp. No. N-1231) is on record?
Answer: The value was “resistant”.

Question: Which “activity (growth inhibition)” value (Proteus mirabilis) does the source give for `COc1cc2cc(c1Cl)N(C)C(=O)CC(OC(=O)C(C)C)C1(C)OC1C(C)C1CC(O)(NC(=O)O1)C(OC)C=CC=C(CO)C2` (stereo not drawn) [PHM-3] here?
Answer: Its value is “no activity”.

Question: What about the “activity (growth inhibition)” value (Bacillus subtilis) of the same compound?
Answer: Its value is “no activity”.

Question: What about the “activity (growth inhibition)” value (Serratia marcessence) of the same compound?
Answer: The value was “no activity”.

Question: And the “activity (growth inhibition)” value (Bacillus cereus)?
Answer: The value was “no activity”.

Question: And the “activity (growth inhibition)” value (Proteus vulgaris)?
Answer: Its value is “no activity”.

Question: What about the “activity (growth inhibition)” value (Pseudomonas aeruginosa) of the same compound?
Answer: The value was “no activity”.

Question: And the “activity (growth inhibition)” value (Klebsiella pneumoniae)?
Answer: Its value is “no activity”.

Question: And the “activity (growth inhibition)” value (Staphylococcus aureus)?
Answer: The value was “no activity”.

Question: And the “activity (growth inhibition)” value (Mycobacterium avium)?
Answer: Its value is “no activity”.

Question: What about the “activity (growth inhibition)” value (Escherichia coli) of the same compound?
Answer: Its value is “no activity”.

Question: And the MIC (Tetrahymena pyriformis W)?
Answer: The MIC was 40 µg/mL (≈ 61.4 µM).

Question: For `CCC[C@@H]1C[C@@H](C(=O)N[C@@H]([C@H]2O[C@H](SC)[C@H](O)[C@@H](O)[C@H]2O)[C@@H](C)O)N(C)C1` [lincomycin], which “resistance of No. N-1231 strain” value (Nocardia sp. No. N-1231) is on record?
Answer: The value was “resistant”.

Question: Which “activity (growth inhibition)” value (Proteus mirabilis) does the source give for `COc1cc2cc(c1Cl)N(C)C(=O)CC(OC(=O)C(C)C)C1(C)OC1C(C)C1CC(O)(NC(=O)O1)C(OC)C=CC=C(COC(C)=O)C2` (stereo not drawn) [PHM-3-acetate] here?
Answer: Its value is “failed to show activity”.

Question: And the “activity (growth inhibition)” value (Bacillus subtilis)?
Answer: The value was “failed to show activity”.

Question: What about the “activity (growth inhibition)” value (Serratia marcessence) of the same compound?
Answer: Its value is “failed to show activity”.

Question: And the “activity (growth inhibition)” value (Bacillus cereus)?
Answer: The value was “failed to show activity”.

Question: What about the “activity (growth inhibition)” value (Proteus vulgaris) of the same compound?
Answer: Its value is “failed to show activity”.

Question: What about the “activity (growth inhibition)” value (Pseudomonas aeruginosa) of the same compound?
Answer: The value was “failed to show activity”.

Question: What about the “activity (growth inhibition)” value (Klebsiella pneumoniae) of the same compound?
Answer: Its value is “failed to show activity”.

Question: What about the “activity (growth inhibition)” value (Staphylococcus aureus) of the same compound?
Answer: Its value is “failed to show activity”.

Question: What about the “activity (growth inhibition)” value (Mycobacterium avium) of the same compound?
Answer: Its value is “failed to show activity”.

Question: What about the “activity (growth inhibition)” value (Escherichia coli) of the same compound?
Answer: Its value is “failed to show activity”.

Question: And the MIC (Tetrahymena pyriformis W)?
Answer: Its MIC is 8 µg/mL (≈ 11.5 µM).

Reference: US4450234A, “Antibiotic C-15003 PHM and production thereof” (Takeda Chemical Industries, Ltd., priority 1979, dated 1984)
